Calls of active or inactive are those of the source. No cut-off for these calls is given here.
Assays:
[1] = target: T1, Inhibitor of nuclear factor kappa-B kinase subunit alpha (Homo sapiens) (UniProt O15111); test: Inhibition of IKKa Lys2 labeling site in human A-375 cells at 5 uM by KiNativ Profiling analysis relative to control; format: cell-based
T1 sequence (whole entry): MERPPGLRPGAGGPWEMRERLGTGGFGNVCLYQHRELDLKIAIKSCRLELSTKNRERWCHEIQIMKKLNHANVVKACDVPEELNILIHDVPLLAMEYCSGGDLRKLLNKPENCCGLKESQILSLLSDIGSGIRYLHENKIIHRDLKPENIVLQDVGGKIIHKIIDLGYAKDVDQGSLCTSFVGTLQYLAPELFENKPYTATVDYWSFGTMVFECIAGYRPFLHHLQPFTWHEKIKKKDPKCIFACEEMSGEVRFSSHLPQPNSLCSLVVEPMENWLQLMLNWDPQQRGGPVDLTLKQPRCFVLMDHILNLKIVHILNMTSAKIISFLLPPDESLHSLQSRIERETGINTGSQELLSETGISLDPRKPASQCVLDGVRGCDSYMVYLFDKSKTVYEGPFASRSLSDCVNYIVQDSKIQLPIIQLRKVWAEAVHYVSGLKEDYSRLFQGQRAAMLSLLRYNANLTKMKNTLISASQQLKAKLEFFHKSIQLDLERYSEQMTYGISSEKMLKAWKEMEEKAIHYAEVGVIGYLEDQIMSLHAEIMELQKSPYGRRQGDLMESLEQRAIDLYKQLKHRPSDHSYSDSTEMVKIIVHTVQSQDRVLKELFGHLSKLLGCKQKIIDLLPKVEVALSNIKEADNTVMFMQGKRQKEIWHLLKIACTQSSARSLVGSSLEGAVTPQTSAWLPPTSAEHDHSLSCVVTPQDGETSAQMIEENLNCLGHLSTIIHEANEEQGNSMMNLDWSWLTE

[2] = target: Casein kinase I isoform alpha-like (Homo sapiens) (UniProt Q8N752); test: Inhibition of CSNK1A1L (unknown origin) at 10 uM by Ambit Kinomescan binding assay
[3] = target: T2, Serine/threonine-protein kinase TBK1 (Homo sapiens) (UniProt Q9UHD2); test: Inhibition of TBK1 K1 labeling site in human Huh-7 cells at 1 uM by KiNativ Profiling analysis relative to control; format: cell-based
T2 sequence (whole entry): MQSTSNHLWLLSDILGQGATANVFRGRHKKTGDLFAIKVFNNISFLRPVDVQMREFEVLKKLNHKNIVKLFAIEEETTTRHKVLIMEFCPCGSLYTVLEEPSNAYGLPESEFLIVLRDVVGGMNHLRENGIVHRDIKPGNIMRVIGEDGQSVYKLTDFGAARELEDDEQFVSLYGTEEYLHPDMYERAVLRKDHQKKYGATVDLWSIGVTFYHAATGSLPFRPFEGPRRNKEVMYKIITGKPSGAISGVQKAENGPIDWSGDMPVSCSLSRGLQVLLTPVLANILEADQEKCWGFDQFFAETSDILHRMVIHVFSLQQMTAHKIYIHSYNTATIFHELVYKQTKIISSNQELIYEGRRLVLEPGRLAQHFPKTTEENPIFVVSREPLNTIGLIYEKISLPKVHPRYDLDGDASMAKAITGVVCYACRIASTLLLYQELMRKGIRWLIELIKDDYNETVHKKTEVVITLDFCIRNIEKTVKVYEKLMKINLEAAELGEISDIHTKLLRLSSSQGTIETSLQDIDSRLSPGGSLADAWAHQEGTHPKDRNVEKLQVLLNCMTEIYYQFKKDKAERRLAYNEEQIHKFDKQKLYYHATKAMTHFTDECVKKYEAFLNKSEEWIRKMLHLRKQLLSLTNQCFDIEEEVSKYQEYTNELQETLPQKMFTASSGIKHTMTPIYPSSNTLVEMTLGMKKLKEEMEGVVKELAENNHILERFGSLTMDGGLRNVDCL

[4] = target: Serine/threonine-protein kinase N2 (Homo sapiens) (UniProt Q16513); test: Inhibition of PKN2 Lys2 labeling site in human A-375 cells at 0.05 uM by KiNativ Profiling analysis relative to control; format: cell-based
[5] = test system: Tyrosine-protein kinase ABL1 (Homo sapiens), P00519 [M351T]; test: Inhibition of ABL1 M351T mutant (unknown origin) at 10 uM by Ambit Kinomescan binding assay relative to control
[6] = target: T3, Dual specificity mitogen-activated protein kinase kinase 4 (Homo sapiens) (UniProt P45985); test: Inhibition of MAP2K4 K2 labeling site harbouring DIKPSNILLDR in human Huh-7 cells at 1 uM by KiNativ Profiling analysis relative to control; format: cell-based
T3 sequence (whole entry): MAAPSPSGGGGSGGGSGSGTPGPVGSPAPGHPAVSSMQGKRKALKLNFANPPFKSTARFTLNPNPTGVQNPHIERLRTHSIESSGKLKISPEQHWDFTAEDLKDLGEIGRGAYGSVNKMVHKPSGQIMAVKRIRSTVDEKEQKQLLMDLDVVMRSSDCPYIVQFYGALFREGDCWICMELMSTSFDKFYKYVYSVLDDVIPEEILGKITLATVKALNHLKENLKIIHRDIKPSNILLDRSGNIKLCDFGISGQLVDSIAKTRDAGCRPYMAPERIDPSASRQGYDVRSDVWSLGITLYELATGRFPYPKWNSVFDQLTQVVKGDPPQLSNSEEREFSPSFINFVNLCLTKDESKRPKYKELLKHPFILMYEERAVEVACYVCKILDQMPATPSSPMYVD

[7] = target: TGF-beta receptor type-1 (Homo sapiens) (UniProt P36897); test: Inhibition of TGFBR1 (unknown origin) at 10 uM by Ambit Kinomescan binding assay
[8] = target: Casein kinase I isoform delta (Homo sapiens) (UniProt P48730); test: Inhibition of CK1 delta K2 labeling site in human Huh-7 cells at 10 uM by KiNativ Profiling analysis relative to control; format: cell-based
[9] = target: Serine/threonine-protein kinase WNK1 (Homo sapiens) (UniProt Q9H4A3); test: Inhibition of Wnk1 ACT labeling site in human Huh-7 cells at 1 uM by KiNativ Profiling analysis relative to control; format: cell-based
[10] = target: Cyclin-dependent kinase 2 (Homo sapiens) (UniProt P24941); test: Inhibition of CDK2 Lys2 labeling site harbouring DLKPQNLLINTEGAIK in human Huh-7 cells at 1 uM by KiNativ Profiling analysis relative to control; format: cell-based
[11] = target: Serine/threonine-protein kinase SIK1 (Homo sapiens) (UniProt P57059); test: Inhibition of SIK Lys2 labeling site in human Huh-7 cell lysate at 1 uM by KiNativ Profiling analysis relative to control; format: subcellular
Chain of Serine/threonine-protein kinase SIK1 (Homo sapiens) (P57059 whole entry): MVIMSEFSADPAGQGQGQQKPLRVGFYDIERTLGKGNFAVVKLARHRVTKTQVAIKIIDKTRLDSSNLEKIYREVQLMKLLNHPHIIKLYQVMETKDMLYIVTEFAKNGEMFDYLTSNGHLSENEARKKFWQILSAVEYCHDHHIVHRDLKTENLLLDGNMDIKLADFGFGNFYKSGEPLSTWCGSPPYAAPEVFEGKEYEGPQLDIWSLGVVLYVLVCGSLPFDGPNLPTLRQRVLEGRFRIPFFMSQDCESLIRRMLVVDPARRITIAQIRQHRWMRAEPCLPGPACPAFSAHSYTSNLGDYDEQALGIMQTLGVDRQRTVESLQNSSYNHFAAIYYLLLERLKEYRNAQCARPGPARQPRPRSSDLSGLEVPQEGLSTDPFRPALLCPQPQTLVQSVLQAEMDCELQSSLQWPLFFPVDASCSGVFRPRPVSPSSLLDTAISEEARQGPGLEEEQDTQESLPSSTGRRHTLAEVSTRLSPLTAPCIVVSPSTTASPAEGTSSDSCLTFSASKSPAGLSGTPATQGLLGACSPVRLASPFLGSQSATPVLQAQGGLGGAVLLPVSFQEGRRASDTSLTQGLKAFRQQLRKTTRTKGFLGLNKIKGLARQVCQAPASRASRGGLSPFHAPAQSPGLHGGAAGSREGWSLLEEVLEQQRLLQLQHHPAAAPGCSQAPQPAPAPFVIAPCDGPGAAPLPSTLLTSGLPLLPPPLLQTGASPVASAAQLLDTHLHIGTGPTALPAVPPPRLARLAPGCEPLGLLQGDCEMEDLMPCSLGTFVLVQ

Chain of Serine/threonine-protein kinase N2 (Homo sapiens) (Q16513 whole entry, looked up): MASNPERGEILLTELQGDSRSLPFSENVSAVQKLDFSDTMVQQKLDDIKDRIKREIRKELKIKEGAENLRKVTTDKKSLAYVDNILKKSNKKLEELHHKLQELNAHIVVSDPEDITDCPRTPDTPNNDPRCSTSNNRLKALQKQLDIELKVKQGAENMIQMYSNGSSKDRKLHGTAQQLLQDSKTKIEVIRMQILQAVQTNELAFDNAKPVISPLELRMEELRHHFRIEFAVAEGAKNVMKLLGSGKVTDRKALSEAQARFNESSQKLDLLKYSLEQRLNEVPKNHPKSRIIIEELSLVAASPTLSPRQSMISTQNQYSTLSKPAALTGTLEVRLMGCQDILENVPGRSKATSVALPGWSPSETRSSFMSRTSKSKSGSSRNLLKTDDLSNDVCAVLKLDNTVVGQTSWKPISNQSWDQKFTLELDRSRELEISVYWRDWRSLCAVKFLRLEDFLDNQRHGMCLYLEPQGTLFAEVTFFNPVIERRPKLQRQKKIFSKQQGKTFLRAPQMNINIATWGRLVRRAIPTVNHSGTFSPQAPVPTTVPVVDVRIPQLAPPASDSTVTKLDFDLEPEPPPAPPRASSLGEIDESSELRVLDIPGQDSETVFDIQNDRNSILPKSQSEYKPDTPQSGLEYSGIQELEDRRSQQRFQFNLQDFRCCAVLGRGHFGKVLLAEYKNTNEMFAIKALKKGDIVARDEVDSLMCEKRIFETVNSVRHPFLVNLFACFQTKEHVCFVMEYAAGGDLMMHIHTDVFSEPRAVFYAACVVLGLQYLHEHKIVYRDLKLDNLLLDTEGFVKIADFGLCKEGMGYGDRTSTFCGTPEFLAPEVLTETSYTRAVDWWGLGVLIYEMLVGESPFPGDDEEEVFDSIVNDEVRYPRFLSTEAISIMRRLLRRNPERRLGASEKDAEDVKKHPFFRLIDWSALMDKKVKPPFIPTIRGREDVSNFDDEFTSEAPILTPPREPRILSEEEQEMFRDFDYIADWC
Chain of Serine/threonine-protein kinase WNK1 (Homo sapiens) (Q9H4A3 whole entry, looked up): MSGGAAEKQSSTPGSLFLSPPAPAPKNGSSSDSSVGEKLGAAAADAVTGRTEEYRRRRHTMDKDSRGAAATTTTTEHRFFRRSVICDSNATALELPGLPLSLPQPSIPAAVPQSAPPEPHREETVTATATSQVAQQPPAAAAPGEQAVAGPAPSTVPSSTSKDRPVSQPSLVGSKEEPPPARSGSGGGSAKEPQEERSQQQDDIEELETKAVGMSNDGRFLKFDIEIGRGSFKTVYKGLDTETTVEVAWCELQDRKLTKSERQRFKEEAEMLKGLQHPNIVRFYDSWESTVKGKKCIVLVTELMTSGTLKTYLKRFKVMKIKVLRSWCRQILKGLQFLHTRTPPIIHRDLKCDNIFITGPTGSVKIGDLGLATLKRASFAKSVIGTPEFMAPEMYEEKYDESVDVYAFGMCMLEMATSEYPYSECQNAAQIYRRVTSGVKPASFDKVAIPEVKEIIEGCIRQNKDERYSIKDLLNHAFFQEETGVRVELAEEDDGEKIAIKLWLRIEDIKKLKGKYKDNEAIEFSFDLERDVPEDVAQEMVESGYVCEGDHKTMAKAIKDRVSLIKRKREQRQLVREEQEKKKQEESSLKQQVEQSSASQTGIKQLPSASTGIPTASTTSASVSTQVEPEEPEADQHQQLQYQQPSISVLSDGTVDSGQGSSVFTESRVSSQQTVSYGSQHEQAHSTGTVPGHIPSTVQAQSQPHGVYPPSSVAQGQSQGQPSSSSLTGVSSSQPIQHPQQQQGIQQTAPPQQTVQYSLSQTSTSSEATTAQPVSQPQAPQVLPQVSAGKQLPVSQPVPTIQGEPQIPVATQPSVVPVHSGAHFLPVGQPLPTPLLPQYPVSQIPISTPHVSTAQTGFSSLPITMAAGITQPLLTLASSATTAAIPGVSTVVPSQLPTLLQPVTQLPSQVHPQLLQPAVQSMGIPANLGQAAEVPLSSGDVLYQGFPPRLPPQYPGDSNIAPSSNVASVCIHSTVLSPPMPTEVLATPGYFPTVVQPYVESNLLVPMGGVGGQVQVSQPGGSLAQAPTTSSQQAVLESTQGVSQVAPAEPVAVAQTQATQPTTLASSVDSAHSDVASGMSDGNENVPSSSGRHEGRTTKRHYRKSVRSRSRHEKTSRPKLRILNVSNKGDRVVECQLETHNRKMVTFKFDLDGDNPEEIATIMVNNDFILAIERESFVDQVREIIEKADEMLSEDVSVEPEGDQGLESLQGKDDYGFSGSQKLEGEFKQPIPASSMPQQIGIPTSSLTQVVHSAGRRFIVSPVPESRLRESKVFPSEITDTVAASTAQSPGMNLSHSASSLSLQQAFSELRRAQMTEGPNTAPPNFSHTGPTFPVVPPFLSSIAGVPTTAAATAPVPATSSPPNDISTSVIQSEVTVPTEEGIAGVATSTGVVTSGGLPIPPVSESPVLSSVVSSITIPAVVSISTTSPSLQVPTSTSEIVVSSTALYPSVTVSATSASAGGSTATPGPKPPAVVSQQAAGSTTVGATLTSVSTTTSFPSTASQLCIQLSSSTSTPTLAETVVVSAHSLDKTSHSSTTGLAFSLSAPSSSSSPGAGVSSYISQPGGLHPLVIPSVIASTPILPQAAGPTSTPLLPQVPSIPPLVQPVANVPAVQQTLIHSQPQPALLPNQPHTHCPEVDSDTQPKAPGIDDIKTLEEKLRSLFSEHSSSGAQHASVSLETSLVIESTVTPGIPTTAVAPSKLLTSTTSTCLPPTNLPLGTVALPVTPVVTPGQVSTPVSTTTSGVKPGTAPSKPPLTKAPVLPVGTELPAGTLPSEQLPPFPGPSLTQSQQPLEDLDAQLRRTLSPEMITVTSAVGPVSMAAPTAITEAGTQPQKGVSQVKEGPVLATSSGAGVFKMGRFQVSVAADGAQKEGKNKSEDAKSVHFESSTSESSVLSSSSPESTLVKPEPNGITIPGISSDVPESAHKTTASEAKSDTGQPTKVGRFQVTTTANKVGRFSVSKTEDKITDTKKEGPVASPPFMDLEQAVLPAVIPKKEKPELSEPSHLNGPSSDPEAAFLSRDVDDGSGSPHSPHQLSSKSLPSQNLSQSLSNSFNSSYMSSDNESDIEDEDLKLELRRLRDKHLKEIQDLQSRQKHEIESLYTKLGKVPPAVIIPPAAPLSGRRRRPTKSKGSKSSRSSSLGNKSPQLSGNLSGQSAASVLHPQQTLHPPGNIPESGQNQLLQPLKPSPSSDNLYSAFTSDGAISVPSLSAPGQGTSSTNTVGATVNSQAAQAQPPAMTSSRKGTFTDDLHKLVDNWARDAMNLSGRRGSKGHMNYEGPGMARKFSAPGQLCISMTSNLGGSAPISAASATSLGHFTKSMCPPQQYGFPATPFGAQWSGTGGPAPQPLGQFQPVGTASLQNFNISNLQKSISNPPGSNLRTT
Chain of Casein kinase I isoform delta (Homo sapiens) (P48730 whole entry, looked up, canonical isoform): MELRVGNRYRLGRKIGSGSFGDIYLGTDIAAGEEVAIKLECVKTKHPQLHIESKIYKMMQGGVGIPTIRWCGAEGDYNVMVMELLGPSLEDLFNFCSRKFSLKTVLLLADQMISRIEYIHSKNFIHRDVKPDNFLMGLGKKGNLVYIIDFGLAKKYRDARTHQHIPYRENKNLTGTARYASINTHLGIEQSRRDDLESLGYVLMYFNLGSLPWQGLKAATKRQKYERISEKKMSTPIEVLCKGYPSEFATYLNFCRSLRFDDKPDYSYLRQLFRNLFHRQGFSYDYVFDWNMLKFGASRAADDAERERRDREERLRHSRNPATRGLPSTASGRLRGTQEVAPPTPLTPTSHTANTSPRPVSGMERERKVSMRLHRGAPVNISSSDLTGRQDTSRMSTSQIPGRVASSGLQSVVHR
Chain of TGF-beta receptor type-1 (Homo sapiens) (P36897 whole entry, canonical isoform): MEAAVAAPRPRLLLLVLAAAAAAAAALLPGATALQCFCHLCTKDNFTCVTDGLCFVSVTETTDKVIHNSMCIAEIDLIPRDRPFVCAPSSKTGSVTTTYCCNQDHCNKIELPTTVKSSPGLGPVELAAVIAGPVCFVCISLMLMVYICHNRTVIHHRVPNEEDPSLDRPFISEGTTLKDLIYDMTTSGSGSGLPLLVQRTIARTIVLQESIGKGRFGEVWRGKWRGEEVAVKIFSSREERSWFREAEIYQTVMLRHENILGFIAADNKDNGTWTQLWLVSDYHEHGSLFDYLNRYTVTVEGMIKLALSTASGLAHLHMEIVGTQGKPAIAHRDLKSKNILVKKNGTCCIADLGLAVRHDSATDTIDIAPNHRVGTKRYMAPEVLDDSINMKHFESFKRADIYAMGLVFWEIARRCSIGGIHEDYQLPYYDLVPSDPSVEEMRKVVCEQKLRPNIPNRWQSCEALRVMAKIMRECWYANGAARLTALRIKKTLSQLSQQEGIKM

Row | SMILES | inhibition [1] | inhibition [2] | inhibition [3] | inhibition [4] | inhibition [5] | inhibition [6] | inhibition [7] | inhibition [8] | inhibition [9] | inhibition [10] | inhibition [11]
1 | CCN1CCN(Cc2ccc(NC(=O)c3ccc(C)c(Oc4ccnc5[nH]ccc45)c3)cc2C(F)(F)F)CC1 | 72.4% | inactive | -9.5% | 5.3% | 0.35% | -9.3% | inactive | 7.8% | – | – | –
2 | CNc1cc(Oc2cc(C(=O)Nc3cc(N4CCN(C)CC4)cc(C(F)(F)F)c3)ccc2C)ncn1 | – | – | – | – | – | – | – | – | 21.6% | -0.4% | -1.3%
